Consider two molecules from patent publication US7090987B1, “Methods for the identification of compounds for the treatment of neuronal atrophy-associated dementia” (priority 1999, dated 2006).

Assay [1] concerns primary cortical neurons from normal mouse embryos. The assay can be described thus: Secreted Aβ by ELISA in primary cortical neuronal cultures. The format is cell-based. The procedure:
We have confirmed this effect of the autophagy inhibitor 3MA on Aβ production in primary cortical neuronal cultures derived from normal mouse embryos (FIG. 11). Following a media change, cultures were incubated in the presence or absence of 3MA for six hours. […] Dissected embryonic cortical tissue from Sprague-Dawley rat embryos (18d gestation) or mouse embryos (17d gestation) is rinsed with calcium/magnesium-free Hanks buffered saline solution and resuspended in 5.0 ml 0.125% trypsin and 0.5 mM EDTA at 37° C. […] Trypsin is quenched and the cells are plated at 1.5×10^6 cells/mL on polylysine coated plates and cultured at 37° C. in 5% CO2 in B27/Neurobasal medium (Gibco/BRL, Gaithersburg, Md.) containing 0.0015% fluorodeoxyuridine (FUDR), giving cultures that are >95% neuronal. For the Aβ sandwich ELISA, Nunc-Immuno Plates (Nunc A/S, Roskilde, Denmark) were coated overnight using 4° C. using antibodies specific for Aβ40 or Aβ42 in 100 mM bicarbonate buffer, pH 9.6. […] Immediately prior to being loaded on the ELISA, 1 ml of the brain homogenate was extracted in diethylamine (Sigma, St. Lousi, Minn.) by adding an equal volume of 0.4% DEA in 100 mM NaCl, re-homogenized and centrifuged for 1 hour at 100,000×g. […] Alternatively, conditioned media collected from cells was loaded neat and 1:2. Aβ-40 and Aβ-42 peptide standards were purchased from American Peptide Co. (Sunnyvale, Calif.), stored at −70° C., and diluted in EC buffer immediately prior to use. ELISA plates were incubated overnight with 4° C. with samples and standards. Aβ was detected by incubating for 4 hours at room temperature with an HRP-conjugated anti-Aβ antibody in 20 mM Na phosphate, 2 mM EDTA, 400 mM Nacl, 1.0% BSA. ELISA plates were developed using a color reaction (ABTS Peroxide Substrate System, Kirkegaard & Perry, Gaithersburg, Md.) and the OD450 read.
For orientation: An ELISA detects its analyte on a solid surface through an enzyme-linked reagent.

In assay [2] the test system is N2a cells expressing APPswe/PS1 wt. The assay can be described thus: Secreted Aβ in conditioned medium by ELISA. The format is cell-based, murine. On the procedure: (§1) In a second set of experiments, N2a cells expressing APPswe/PS1 wt or APPswe/PS1Δ9 were incubated either in the presence or absence of 5 mM 3MA (FIG. 10B). Conditioned medium was collected and pooled from two plates and spun at 1000×g to remove cells and cellular debris. The amount of secreted Aβ was then determined using ELISA. In both APPswe/PS1 wt and APPswe/PS1 Δ9 N2A cells incubated in the presence of 3MA, there was a reduction of Aβ1-40 and Aβ1-42 in the conditioned medium (FIG. 10B). While the decrease was greatest in the N2A cells expressing mutant PS1, we found a significant decrease of approximately 20% or great for both Aβ species in both the wild-type and Δ9 PS1 expressing lines.
(§2) For the Aβ sandwich ELISA, Nunc-Immuno Plates (Nunc A/S, Roskilde, Denmark) were coated overnight using 4° C. using antibodies specific for Aβ40 or Aβ42 in 100 mM bicarbonate buffer, pH 9.6. Remaining protein binding sites were blocked by incubating with 1% Block Ace (Yukijirushi Milk, Sapporo Japan) in PBS for 4 hours at room temperature. 10% (w/v) homogenates were prepared from a hemibrain in 20 MM Tris, 250 mM sucrose, 1 mM EDTA, 1 mM EGTA, protease inhibitors, pH 7.4, and stored frozen at −70° C. Immediately prior to being loaded on the ELISA, 1 ml of the brain homogenate was extracted in diethylamine (Sigma, St. Lousi, Minn.) by adding an equal volume of 0.4% DEA in 100 mM NaCl, re-homogenized and centrifuged for 1 hour at 100,000×g. The supernatant was collected, neutralized with 0.1 volume 0.5 M Tris, pH 6.8, and loaded in duplicate wells both neat and diluted 1:2 in EC buffer (20 mM Na phosphate, 2 mM EDTA, 400 mM NaCl, 0.2% BSA, 0.4% Block Ace, 0.95% CHAPS). […] Alternatively, conditioned media collected from cells was loaded neat and 1:2. Aβ-40 and Aβ-42 peptide standards were purchased from American Peptide Co. (Sunnyvale, Calif.), stored at −70° C., and diluted in EC buffer immediately prior to use. ELISA plates were incubated overnight with 4° C. with samples and standards. Aβ was detected by incubating for 4 hours at room temperature with an HRP-conjugated anti-Aβ antibody in 20 mM Na phosphate, 2 mM EDTA, 400 mM Nacl, 1.0% BSA. ELISA plates were developed using a color reaction (ABTS Peroxide Substrate System, Kirkegaard & Perry, Gaithersburg, Md.) and the OD450 read.

For assay [3], the system named is N2a cells expressing APPswe/PS1Δ9. Kind of assay: Secreted Aβ in conditioned medium by ELISA. The format is cell-based, murine. Particulars: 5 mM 3MA, FIG. 10B. On the procedure: as §1, §2
The test system of assay [4] is N2a cells expressing APPswe/PS1 wt. The assay can be described thus: Aβ secretion, metabolic labeling and anti-Aβ immunoprecipitation, SDS-PAGE/fluorography. The format is cell-based, murine. The source says:
(§3) Cells were then metabolically labeled for four hours, again in the absence or presence of autophagy inhibitors. The growth medium was collected and subjected to immunoprecipitation with an anti-Aβ monoclonal antibody that recognizes both Aβ1-40 and Aβ1-42. Labeled Aβ was resolved by SDS-PAGE and fluorography (FIG. 10A).

For assay [5], the system named is N2a cells expressing APPswe/PS1Δ9. The description is as above. The format is cell-based, murine.
Source text: as §3

Assay [6] has the same test system. The assay can be described thus: Tau protein levels by Western blot. As to conditions: for increase in tau protein levels: FIG. 10C; for tau protein levels (Western blot): figure legend FIG. 10C. The format is cell-based, murine. On the procedure:
There are numerous assays for tau known in the art. For example, the processing of tau by immunocytochemistry and Western blot analysis is performed using an antibody that recognizes both phosphorylated and non-phosphorylated forms (Adamec et al., Brain Res. 757:93–101, 1997). Abnormal tau conformation and byperphosphorylated tau is examined using suitable monoclonal antibodies (e.g., MC1 (Jicha et al., J. Neurosci. Res. 48:128–132) and AT8 (Innogenetics, Gent, Belgium)). EM analysis can be performed to characterize cytoskeletal changes in neurons (Nixon, Bioessays 20:798–807, 1998).

Setting [7] is: six hours incubation, ELISA, FIG. 11.
[8] abbreviates: 10 mM inhibitor (leucine and histidine 10 mM each), four hours metabolic labeling, growth medium, FIG. 10A top panel.
Setting [9] is: 10 mM inhibitor, C-terminal antibody, FIG. 10A bottom panel.

In the case of `Cn1cnc(N)c2ncnc1-2` [3MA, 3-methyladenine], the “Aβ secretion into the media” value in assay [1] (figure legend FIG. 11) was “reduction”. Also, in assay [1] (setting [7]), the “reduction of Aβ40 secreted into the media” value is given as “approximately 20%”. Also, in assay [1] (setting [7]), the “reduction of Aβ42 secreted into the media” value is recorded as “approximately 20%”. Further, the “decrease of Aβ1-40 in conditioned medium” value in assay [2] (5 mM 3MA, ELISA, FIG. 10B) is not below 20%; in assay [3], not below 20%. Further, the “decrease of Aβ1-42 in conditioned medium” value in assay [2] (5 mM 3MA, ELISA, FIG. 10B) is reported as not below 20%; in assay [3] it was not below 20%. The “Aβ secretion into the growth media (ELISA)” value in assay [2] (figure legend FIG. 10B, N2a cells, both lines shown) is given as “decreased”. Further, the “amount of Aβ secreted” value in assay [4] (setting [8]) and in assay [5] (setting [8]) was “reduced” throughout. Besides, the “amount of full-length APP immunoprecipitated from cell lysates” value in assay [4] (setting [9]) and in assay [5] (setting [9]) was “did not affect” in each case. Further, in assay [4] (figure legend FIG. 10A, neuroblastoma cells, both lines shown), the “Aβ generation (autoradiograph)” value is on record as “decreased”. Moreover, the “increase in tau protein levels” value in assay [6] (3MA-treated, concentration not given) was “approximately 2 times”. Moreover, the “tau protein levels (Western blot)” value in assay [6] is “increased”.
Regarding `CC[C@]1(O)C[C@@H]2CN(CCc3c([nH]c4ccccc34)[C@@](C(=O)OC)(c3cc4c(cc3OC)N(C)[C@H]3[C@@](O)(C(=O)OC)[C@H](OC(C)=O)[C@]5(CC)C=CCN6CC[C@]43[C@@H]65)C2)C1` [vinblastine], the “tau protein levels (Western blot)” value in assay [6] is given as “increased”. Further, the “increase in tau protein levels” value in assay [6] (vinblastine 50 μM) is given as approximately 2.5 times.
